Experiments:
THP-1 cells = assay: TNFα generation assay; format: cell-based, human; conditions: Homo sapiens, THP-1, THP-1 cells; Table 22; read-out: IC50 in TNFα generation assay
Outline: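 Secreted TNFα in supernatant quantified by ELISA or AlphaLISA after 7 h culture on human IgG-coated wells (10 μg/ml coating). Cells were IFN-γ-differentiated THP-1 (10 ng/ml, 2 days), exposed to compound for 30 min at room temperature before plating.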

[1] = molecular target: T1, glutathione S-transferase (GST)-fused full-length human Syk protein (Homo sapiens, UniProt P43405); assay: Syk enzyme assay; format: biochemical; conditions: Syk enzyme assay, Test Example 1; read-out: IC50 of Syk-inhibitory activity
T1 construct: (GST)-fused full-length human Syk protein; GST (glutathione S-transferase); purchased Carna Biosciences
Outline: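 Baculovirus-expressed enzyme (1.2 ng) was preincubated with compound in HEPES pH 7.0/MgCl2/DTT buffer, 2 min shaking then 13 min at room temperature. Biotin-EDPDYEWPSA-NH2 (0.4 μM final) and ATP (27 μM final) were added for 40 min at room temperature. EDTA stop, streptavidin-XL/PT66-K TR-FRET at 615/665 nm gave IC50.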

IC50 (THP-1 cells) [nM] | IC50 [1] [nM] | Structure (SMILES)
65 to 130 | 10 to 50 | COc1nccc(Nc2nc(N[C@@H]3CCCC[C@@H]3N)c(F)cc2C(N)=O)c1F [Example 006-432, 6-(((1R,2S)-2-aminocyclohexyl)amino)-5-fluoro-2-((3-fluoro-2-methoxypyridin-4-yl)amino)nicotinamide]
< 65 | 50 to 100 | Cc1cc(Nc2nc(N[C@H](C3CC3)[C@H](C)N)c(F)cc2C(N)=O)cnc1C [Example 006-434, 6-(((1R,2S)-2-amino-1-cyclopropylpropyl)amino)-2-((5,6-dimethylpyridin-3-yl)amino)-5-fluoronicotinamide]
65 to 130 | < 10 | Cc1cc(Nc2nc(N[C@H](CC3CC3)[C@H](C)N)c(F)cc2C(N)=O)cnc1C [Example 006-435, 6-(((2R,3S)-3-amino-1-cyclopropylbutan-2-yl)amino)-2-((5,6-dimethylpyridin-3-yl)amino)-5-fluoronicotinamide]
< 65 | < 10 | Cc1nn(C)c2ccc(Nc3nc(N[C@H](CC4CC4)[C@H](C)N)c(F)cc3C(N)=O)cc12 [Example 006-442, 6-(((2R,3S)-3-amino-1-cyclopropylbutan-2-yl)amino)-2-((1,3-dimethyl-1H-indazol-5-yl)amino)-5-fluoronicotinamide]
65 to 130 | < 10 | CCn1nc(C)c2cc(Nc3nc(N[C@H](CC4CC4)[C@H](C)N)c(F)cc3C(N)=O)ccc21 [Example 006-443, 6-(((2R,3S)-3-amino-1-cyclopropylbutan-2-yl)amino)-2-((1-ethyl-3-methyl-1H-indazol-5-yl)amino)-5-fluoronicotinamide]
65 to 130 | 50 to 100 | COCCn1nc(C)c2cc(Nc3nc(N[C@H](CC4CC4)[C@H](C)N)c(F)cc3C(N)=O)ccc21 [Example 006-444, 6-(((2R,3S)-3-amino-1-cyclopropylbutan-2-yl)amino)-5-fluoro-2-((1-(2-methoxyethyl)-3-methyl-1H-indazol-5-yl)amino)nicotinamide]
65 to 130 | < 10 | Cc1nn(CC(F)F)c2ccc(Nc3nc(N[C@H](CC4CC4)[C@H](C)N)c(F)cc3C(N)=O)cc12 [Example 006-445, 6-(((2R,3S)-3-amino-1-cyclopropylbutan-2-yl)amino)-2-((1-(2,2-difluoroethyl)-3-methyl-1H-indazol-5-yl)amino)-5-fluoronicotinamide]
130 to 200 | 10 to 50 | NC(=O)c1cc(F)c(N[C@@H]2CCCC[C@@H]2N)nc1Nc1cnc(-n2cccn2)c(Cl)c1 [Example 006-446, 6-(((1R,2S)-2-aminocyclohexyl)amino)-2-((5-chloro-6-(1H-pyrazol-1-yl)pyridin-3-yl)amino)-5-fluoronicotinamide]
130 to 200 | 10 to 50 | NC(=O)c1cc(F)c(N[C@@H]2CCCC[C@@H]2N)nc1Nc1cnc(-n2cccn2)c(F)c1 [Example 006-447, 6-(((1R,2S)-2-aminocyclohexyl)amino)-5-fluoro-2-((5-fluoro-6-(1H-pyrazol-1-yl)pyridin-3-yl)amino)nicotinamide]
130 to 200 | 50 to 100 | NC(=O)c1cc(F)c(N[C@@H]2CCCC[C@@H]2N)nc1Nc1cnc(-n2cccn2)c(-n2nccn2)c1 [Example 006-449, 2-((6-(1H-pyrazol-1-yl)-5-(2H-1,2,3-triazol-2-yl)pyridin-3-yl)amino)-6-(((1R,2S)-2-aminocyclohexyl)amino)-5-fluoronicotinamide]
< 65 | < 10 | CCc1nn(C)c2ccc(Nc3nc(N[C@@H]4CCCC[C@@H]4N)c(F)cc3C(N)=O)cc12 [Example 006-451, 6-(((1R,2S)-2-aminocyclohexyl)amino)-2-((3-ethyl-1-methyl-1H-indazol-5-yl)amino)-5-fluoronicotinamide]

The remaining lines, values behind:

Structure (SMILES) | IC50 (THP-1 cells) [nM] | IC50 [1] [nM]
COCCOc1cc(Nc2nc(N[C@H](CC(C)C)[C@H](C)N)c(F)cc2C(N)=O)ccn1 [Example 006-411, 6-(((2S,3R)-2-amino-5-methylhexan-3-yl)amino)-5-fluoro-2-((2-(2-methoxyethoxy)pyridin-4-yl)amino)nicotinamide] | 130 to 200 | < 10
CC(C)C[C@@H](Nc1nc(Nc2cncc(C3CC3)c2)c(C(N)=O)cc1F)[C@H](C)N [Example 006-412, 6-(((2S,3R)-2-amino-5-methylhexan-3-yl)amino)-2-((5-cyclopropylpyridin-3-yl)amino)-5-fluoronicotinamide] | 130 to 200 | < 10
CCCC[C@H](CN)Nc1nc(Nc2ccc3c(cnn3CCF)c2)c(C(N)=O)cc1F [Example 006-414, (R)-6-((1-aminohexan-2-yl)amino)-5-fluoro-2-((1-(2-fluoroethyl)-1H-indazol-5-yl)amino)nicotinamide] | 65 to 130 | < 10
CC(C)C[C@H](CN)Nc1nc(Nc2ccc3c(cnn3CCF)c2)c(C(N)=O)cc1F [Example 006-415, (R)-6-((1-amino-4-methylpentan-2-yl)amino)-5-fluoro-2-((1-(2-fluoroethyl)-1H-indazol-5-yl)amino)nicotinamide] | 65 to 130 | < 10
CC[C@@H](Nc1nc(Nc2ccc3c(cnn3CCF)c2)c(C(N)=O)cc1F)[C@H](C)N [Example 006-416, 6-(((2S,3R)-2-aminopentan-3-yl)amino)-5-fluoro-2-((1-(2-fluoroethyl)-1H-indazol-5-yl)amino)nicotinamide] | 65 to 130 | < 10
CCC[C@@H](Nc1nc(Nc2ccc3c(cnn3CCF)c2)c(C(N)=O)cc1F)[C@H](C)N [Example 006-417, 6-(((2S,3R)-2-aminohexan-3-yl)amino)-5-fluoro-2-((1-(2-fluoroethyl)-1H-indazol-5-yl)amino)nicotinamide] | 65 to 130 | < 10
CCCC[C@@H](Nc1nc(Nc2ccc3c(cnn3CCF)c2)c(C(N)=O)cc1F)[C@H](C)N [Example 006-418, 6-(((2S,3R)-2-aminoheptan-3-yl)amino)-5-fluoro-2-((1-(2-fluoroethyl)-1H-indazol-5-yl)amino)nicotinamide] | 65 to 130 | < 10
C[C@H](N)[C@@H](CC1CC1)Nc1nc(Nc2ccc3c(cnn3CCF)c2)c(C(N)=O)cc1F [Example 006-420, 6-(((2R,3S)-3-amino-1-cyclopropylbutan-2-yl)amino)-5-fluoro-2-((1-(2-fluoroethyl)-1H-indazol-5-yl)amino)nicotinamide] | 65 to 130 | < 10
COc1cc(Nc2nc(N[C@H](C3CC3)[C@H](C)N)c(F)cc2C(N)=O)cc(OC)n1 [Example 006-429, 6-(((1R,2S)-2-amino-1-cyclopropylpropyl)amino)-2-((2,6-dimethoxypyridin-4-yl)amino)-5-fluoronicotinamide] | 65 to 130 | < 10
COc1cc(Nc2nc(N[C@H](C3CC3)[C@H](C)N)c(F)cc2C(N)=O)ccn1 [Example 006-430, 6-(((1R,2S)-2-amino-1-cyclopropylpropyl)amino)-5-fluoro-2-((2-methoxypyridin-4-yl)amino)nicotinamide] | 65 to 130 | < 10
COCCOc1cc(Nc2nc(N[C@H](C3CC3)[C@H](C)N)c(F)cc2C(N)=O)ccn1 [Example 006-431, 6-(((1R,2S)-2-amino-1-cyclopropylpropyl)amino)-5-fluoro-2-((2-(2-methoxyethoxy)pyridin-4-yl)amino)nicotinamide] | 65 to 130 | 10 to 50

Source: patent US8895585B2, “Nicotinamide derivative or salt thereof” (FUJIFILM Corporation, priority 2010, dated 2014)
